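Five compound concentrations were applied to cells in 96-well plates for 48 hours; endpoints were derived by simple linear interpolation of the resulting dose-response curve. Definition used: TGI = concentration required for complete inhibition of growth.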 Where a SMILES comes first, the peptide text is derived from it. [ ]: non-standard residue; d: D form. The star is where a group is joined. ξ: configuration not given here. ξF = NC(Cc1ccccc1)C(=O)O; Cbz = O=C(OCc1ccccc1)*

One assay concerns ACHN renal. The assay is described as follows: growth of human tumour cells (NCI), 48 h.
`Clc1ccc(C=Nc2ccc(Oc3ccc(Cl)cc3)c(Cl)c2)cc1` showed a TGI greater than 100 µM.
The same measure, in the same setting: the same measure for `CCN(/C=C1/C(=O)C(c2ccccc2)N(c2ccccc2)C1=O)CC` (configuration not stated): greater than 10 µM; for `C[C@H]1CC[C@@]2(OC1)O[C@H]1C[C@H]3[C@@H]4CC[C@@H]5C[C@@H](OC6OC(CO)C(O)C(O)C6OC6OC(CO)C(O)C(O)C6O)CC[C@]5(C)[C@H]4CC[C@]3(C)[C@H]1[C@@H]2C` (some centres not stated): 3.82 µM; for `CSc1nncc(-c2cc3c(c(SC)n2)CCCC3)n1`: greater than 100 µM.
The same measure, in the same setting: the same measure for `Cn1c2ccccc2c(=O)c2c(O)cc3c(c21)C1OCC(C)(O)C1O3` (configuration not stated): greater than 100 µM.
`Cc1cc(N(CCC#N)CCC#N)ccc1/C(N=Nc1ccccc1)=N\NC(=O)c1cc(Cl)ccc1O`: the TGI was 42.6 µM.
In turn, `Cn1c(CNc2ccc(-c3n[nH]c(=S)n3C)cc2)n[nH]c1=S` returned a TGI greater than 100 µM.
With `Cc1ccc(N=N/C(=N/NC(=O)c2ccccc2)c2ccc(N(CCC#N)CCC#N)cc2C)cc1`, the TGI was greater than 100 µM.
On the same count and under the same terms, the same measure for `CC(N)(CC(O)(C(F)(F)Cl)C(F)(F)Cl)C(=O)O` (configuration not stated): greater than 10 µM; for `COC(CN(C)C(=S)Nc1cccc2ccccc12)OC`: greater than 10 µM; for `CCN1CCC(O)(c2ccc([N+](=O)[O-])cc2)C(C(=O)c2ccc([N+](=O)[O-])cc2)C1` (configuration not stated): 32 µM.
The same measure, in the same setting: the value for `CCOC(=O)CNC(=O)C(Cc1ccccc1)NC(=O)OCc1ccccc1` (configuration not stated) (Cbz-[ξF]-Gly-OEt) was greater than 100 µM.
As for `CCOC(=O)C1(C/C=C\CBr)CCCC1=O` (configuration not stated), the TGI is 56.5 µM.
Still for that read-out and setting: the same measure for `Cc1[nH]n(-c2nc3c(c(=O)[nH]2)CCCC3)c(=O)c1CCO`: greater than 100 µM.
`Cc1cc2nc3c(C#N)c(-c4ccccc4)/c(=C\Nc4ccc(F)cc4)c(=O)n3c2cc1C`: the TGI is greater than 100 µM.

A further assay relates to CAKI-1 renal. As to the kind of experiment: growth of human tumour cells (NCI), 48 h.
Take `Clc1ccc(C=Nc2ccc(Oc3ccc(Cl)cc3)c(Cl)c2)cc1`: the TGI was 86.2 µM.
Still for that read-out and setting: the value for `CCN(/C=C1/C(=O)C(c2ccccc2)N(c2ccccc2)C1=O)CC` (configuration not stated) was greater than 10 µM; that for `C[C@H]1CC[C@@]2(OC1)O[C@H]1C[C@H]3[C@@H]4CC[C@@H]5C[C@@H](OC6OC(CO)C(O)C(O)C6OC6OC(CO)C(O)C(O)C6O)CC[C@]5(C)[C@H]4CC[C@]3(C)[C@H]1[C@@H]2C` (some centres not stated) was 3.44 µM; that for `CSc1nncc(-c2cc3c(c(SC)n2)CCCC3)n1` was greater than 100 µM.
Still for that read-out and setting: the same measure for `Cn1c2ccccc2c(=O)c2c(O)cc3c(c21)C1OCC(C)(O)C1O3` (configuration not stated): greater than 100 µM; for `Cc1cc(N(CCC#N)CCC#N)ccc1/C(N=Nc1ccccc1)=N\NC(=O)c1cc(Cl)ccc1O`: greater than 100 µM; for `Cn1c(CNc2ccc(-c3n[nH]c(=S)n3C)cc2)n[nH]c1=S`: greater than 100 µM.
On the same count and under the same terms, the same measure for `Cc1ccc(N=N/C(=N/NC(=O)c2ccccc2)c2ccc(N(CCC#N)CCC#N)cc2C)cc1`: greater than 100 µM.
On to `CC(N)(CC(O)(C(F)(F)Cl)C(F)(F)Cl)C(=O)O` (configuration not stated), for which the TGI was greater than 10 µM.
Same read-out and setting: the value for `COC(CN(C)C(=S)Nc1cccc2ccccc12)OC` was greater than 10 µM; that for `CCN1CCC(O)(c2ccc([N+](=O)[O-])cc2)C(C(=O)c2ccc([N+](=O)[O-])cc2)C1` (configuration not stated) was 41.2 µM; that for `CCOC(=O)C1(C/C=C\CBr)CCCC1=O` (configuration not stated) was greater than 100 µM.
With `Cc1[nH]n(-c2nc3c(c(=O)[nH]2)CCCC3)c(=O)c1CCO`, the TGI was greater than 100 µM.
The same measure, in the same setting: the same measure for `Cc1cc2nc3c(C#N)c(-c4ccccc4)/c(=C\Nc4ccc(F)cc4)c(=O)n3c2cc1C`: greater than 100 µM.

In a further assay the test system is CCRF-CEM leukemia. As to the kind of experiment: growth of human tumour cells (NCI), 48 h.
Turning to `Clc1ccc(C=Nc2ccc(Oc3ccc(Cl)cc3)c(Cl)c2)cc1`, the TGI was 59.7 µM.
The same measure, in the same setting: the same measure for `CCN(/C=C1/C(=O)C(c2ccccc2)N(c2ccccc2)C1=O)CC` (configuration not stated): greater than 10 µM; for `C[C@H]1CC[C@@]2(OC1)O[C@H]1C[C@H]3[C@@H]4CC[C@@H]5C[C@@H](OC6OC(CO)C(O)C(O)C6OC6OC(CO)C(O)C(O)C6O)CC[C@]5(C)[C@H]4CC[C@]3(C)[C@H]1[C@@H]2C` (some centres not stated): 3.73 µM.
Still for that read-out and setting: the same measure for `CSc1nncc(-c2cc3c(c(SC)n2)CCCC3)n1`: greater than 100 µM; for `Cn1c2ccccc2c(=O)c2c(O)cc3c(c21)C1OCC(C)(O)C1O3` (configuration not stated): greater than 100 µM; for `Cc1cc(N(CCC#N)CCC#N)ccc1/C(N=Nc1ccccc1)=N\NC(=O)c1cc(Cl)ccc1O`: 96.3 µM.
`Cn1c(CNc2ccc(-c3n[nH]c(=S)n3C)cc2)n[nH]c1=S` showed a TGI greater than 100 µM.
The same measure, in the same setting: the same measure for `Cc1ccc(N=N/C(=N/NC(=O)c2ccccc2)c2ccc(N(CCC#N)CCC#N)cc2C)cc1`: greater than 100 µM; for `CC(N)(CC(O)(C(F)(F)Cl)C(F)(F)Cl)C(=O)O` (configuration not stated): greater than 10 µM.
In turn, `COC(CN(C)C(=S)Nc1cccc2ccccc12)OC` registered a TGI greater than 10 µM.
With `CCN1CCC(O)(c2ccc([N+](=O)[O-])cc2)C(C(=O)c2ccc([N+](=O)[O-])cc2)C1` (configuration not stated), the TGI is greater than 100 µM.
Still for that read-out and setting: the value for `CCOC(=O)CNC(=O)C(Cc1ccccc1)NC(=O)OCc1ccccc1` (configuration not stated) (Cbz-[ξF]-Gly-OEt) was greater than 100 µM.
Same read-out and setting: the value for `Cc1[nH]n(-c2nc3c(c(=O)[nH]2)CCCC3)c(=O)c1CCO` was greater than 100 µM; that for `Cc1cc2nc3c(C#N)c(-c4ccccc4)/c(=C\Nc4ccc(F)cc4)c(=O)n3c2cc1C` was greater than 100 µM.

The next assay relates to HCC-2998 colon. As to the kind of experiment: growth of human tumour cells (NCI), 48 h.
`Clc1ccc(C=Nc2ccc(Oc3ccc(Cl)cc3)c(Cl)c2)cc1` had a TGI of 45.6 µM.
Same read-out and setting: the value for `CCN(/C=C1/C(=O)C(c2ccccc2)N(c2ccccc2)C1=O)CC` (configuration not stated) was greater than 10 µM; that for `C[C@H]1CC[C@@]2(OC1)O[C@H]1C[C@H]3[C@@H]4CC[C@@H]5C[C@@H](OC6OC(CO)C(O)C(O)C6OC6OC(CO)C(O)C(O)C6O)CC[C@]5(C)[C@H]4CC[C@]3(C)[C@H]1[C@@H]2C` (some centres not stated) was 3.71 µM; that for `CSc1nncc(-c2cc3c(c(SC)n2)CCCC3)n1` was greater than 100 µM.
The same measure, in the same setting: the same measure for `Cn1c2ccccc2c(=O)c2c(O)cc3c(c21)C1OCC(C)(O)C1O3` (configuration not stated): greater than 100 µM; for `Cc1cc(N(CCC#N)CCC#N)ccc1/C(N=Nc1ccccc1)=N\NC(=O)c1cc(Cl)ccc1O`: 31.8 µM; for `Cn1c(CNc2ccc(-c3n[nH]c(=S)n3C)cc2)n[nH]c1=S`: greater than 100 µM.
`Cc1ccc(N=N/C(=N/NC(=O)c2ccccc2)c2ccc(N(CCC#N)CCC#N)cc2C)cc1` returned a TGI greater than 100 µM.
In turn, `CC(N)(CC(O)(C(F)(F)Cl)C(F)(F)Cl)C(=O)O` (configuration not stated) displayed a TGI greater than 10 µM.

These data come from PubChem BioAssay (NCI).
